Experimental data from ChEMBL document CHEMBL5036363, “Discovery and Lead Optimization of Benzene-1,4-disulfonamides as Oxidative Phosphorylation Inhibitors” (J Med Chem, 2022).
The source made the active and inactive calls. The calls are words filed in the database; no cut-off is given here.

Experiments:
[1] = Cytotoxicity against human UM16 cells assessed as inhibition of cell growth; assay type: functional, cell-based
[2] = system: MIA PaCa-2; experiment: Cytotoxicity against human MIA PaCa-2 cells assessed as inhibition of cell growth incubated for 7 days in glucose-containing medium by MTT assay; assay type: functional, cell-based; settings: MIA PaCa-2, 168 h
[3] = system: MIA PaCa-2; experiment: Cytotoxicity against human MIA PaCa-2 cells assessed as inhibition of cell growth incubated for 3 days in galactose-containing medium by MTT assay; assay type: functional, cell-based; settings: MIA PaCa-2, 72 h
[4] = Microsomal stability in human liver microsomes assessed as half life at 10 uM measured upto 60 mins by LC-MS/MS analysis; assay type: ADME, Microsome; settings: for half-life at 10 µM: liver microsomes; for t1/2: microsomes, 1 h, 10 µM
[5] = Microsomal stability in mouse liver microsomes assessed as half life at 10 uM measured upto 60 mins by LC-MS/MS analysis; assay type: ADME, Microsome; settings: for t1/2: microsomes, 1 h, 10 µM
[6] = system: MIA PaCa-2; experiment: Inhibition of oxidative phosphorylation in human MIA PaCa-2 cells assessed as reduction in ATP production incubated for 24 hrs in glucose-containing medium by CellTiter-glo luminescence assay; assay type: functional, cell-based
[7] = Inhibition of oxidative phosphorylation in human MIA PaCa-2 cells assessed as reduction in ATP production incubated for 24 hrs in galactose-containing medium by CellTiter-glo luminescence assay; assay type: functional, cell-based; settings: MIA PaCa-2, 24 h
[8] = Inhibition of oxidative phosphorylation complex I in human MIA PaCa-2 cells assessed as reduction in NAD+/NADH ratio incubated for 48 hrs by NAD/NADH-Glo assay; assay type: cell-based; settings: MIA PaCa-2, 48 h
[9] = system: MIA PaCa-2; experiment: Cytotoxicity against human MIA PaCa-2 cells assessed as inhibition of cell growth incubated for 3 days in glucose-containing medium by MTT assay; assay type: functional, cell-based; settings: MIA PaCa-2, 72 h
[10] = species: Homo sapiens; experiment: Inhibition of complex-I-dependent oxygen consumption in mitochondria of human PC-3 cells by luxcel-dye staining based MitoXpress method; assay type: functional, cell-based
[11] = system: BXPC-3; experiment: Cytotoxicity against human BXPC-3 cells assessed as inhibition of cell growth incubated for 7 days in glucose-containing medium by MTT assay; assay type: functional, cell-based; settings: BXPC-3, 168 h
[12] = system: MIA PaCa-2; experiment: Antitumor activity against human MIA PaCa-2 cells xenografted in C57BL/6 mouse syngeneic model assessed as tumor growth inhibition at 5 mg/kg, ip measured upto 28 days by digital caliper method; assay type: functional, organism-based; settings: time day <=28
[13] = Toxicity in C57BL/6 mouse xenografted with human MIA PaCa-2 cells assessed as body weight loss at 5 mg/kg, ip measured twice a week for 28 days; assay type: organism-based; settings: in vivo, 672 h, time 28 day
[14] = system: NCI-H460; experiment: Cytotoxicity against human NCI-H460 cells assessed as reduction in galactose-dependent cell viability incubated for 3 days by IncuCyte live-cell imaging assay; assay type: functional, cell-based; settings: NCI-H460, 72 h
[15] = Drug metabolism in mouse liver microsomes assessed as formation of de-ethylated diethyl-sulfonamide moiety metabolite at 10 uM measured after 7 to 30 mins by LC-MS/MS analysis; assay type: ADME, Microsome; settings: time 7-30 min
[16] = Drug metabolism in mouse liver microsomes assessed as formation of hydroxylated piperidine ring moiety metabolite at 10 uM measured after 7 to 30 mins by LC-MS/MS analysis; assay type: ADME, Microsome; settings: time 7-30 min
[17] = Inhibition of mitochondrial complex I (unknown origin) incubated for 20 hrs by Colorimetric assay
[18] = Inhibition of mitochondrial complex I in human pancreatic cancer cells assessed as reduction in oxygen consumption rate measured immediately by seahorse XFe96 analyser based assay; settings: pancreatic cancer cell
[19] = Kinetic aqueous solubility of the compound by turbidimetric method; assay type: physicochemical; settings: buffer
[20] = Inhibition of mitochondrial complex I in human HepG2 cells assessed as reduction in oxygen consumption rate incubated for 6 hrs by seahorse XF analyser based assay; assay type: cell-based

t1/2 [5]	t1/2 [4]	Structure (SMILES)	IC50 [2]	IC50 [3]	inhibition [6]	IC50 [7]	IC50 [8]	IC50 [9]	IC50 [11]	further results
		CCOC(=O)C1CCCN(S(=O)(=O)c2ccc(S(=O)(=O)N(CC)CC)cc2)C1 (racemic)								IC50 [1]: 580 nM
		CCOC(=O)[C@H]1CCCN(S(=O)(=O)c2ccc(S(=O)(=O)N(CC)CC)cc2)C1								IC50 [1]: 9470 nM
		CC(C)c1noc(N2CCN(C(=O)[C@@H]3CCCN(S(=O)(=O)c4ccc(S(=O)(=O)C(C)C)cc4)C3)CC2)n1	70 nM	> 10000 nM	inactive	29.2 nM	30.4 nM			half-life at 10 µM [4]: > 60 min; half-life at 10 µM ([5]; liver microsomes): > 60 min
32.58 min		CC(C)c1noc(C2CCN(C(=O)[C@@H]3CCCN(S(=O)(=O)c4ccc(S(=O)(=O)C(C)C)cc4)C3)CC2)n1	50 nM	> 10000 nM	inactive	17.2 nM	7.1 nM	20 nM		half-life at 10 µM [4]: > 60 min
		Cc1cc(-c2nc(-c3ccc(OC(F)(F)F)cc3)no2)nn1Cc1ccnc(N2CCN(C3CC3)CC2)c1								IC50 [10]: 10 nM
7.77 min	2.53 min	CCC(CC)S(=O)(=O)c1ccc(S(=O)(=O)N2CCC[C@@H](C(=O)N3CCN(c4nc(C(C)C)no4)CC3)C2)cc1	50 nM						120 nM	
29.36 min	3.36 min	CC(C)NS(=O)(=O)c1ccc(S(=O)(=O)N2CCC[C@@H](C(=O)N3CCN(c4nc(C(C)C)no4)CC3)C2)cc1	2600 nM	> 10000 nM				200 nM	2600 nM	
10.47 min	12.76 min	CCN(CC)C(=O)c1ccc(S(=O)(=O)N2CCC[C@@H](C(=O)N3CCN(c4nc(C(C)C)no4)CC3)C2)cc1	100 nM	> 10000 nM				70 nM	1400 nM	
		CC(C)c1noc(N2CCN(C(=O)[C@@H]3CCCN(S(=O)(=O)c4ccc(S(=O)(=O)C5CCC5)cc4)C3)CC2)n1	70 nM	> 10000 nM	inactive	42.6 nM	16 nM	20 nM		Activity [12]: Active; Activity [13]: Non-Toxic
		Cc1nc(-c2nc(-c3ccc(OC(F)(F)F)cc3)no2)nn1Cc1cccc(N2CCC(S(C)(=O)=O)CC2)c1								IC50 [14]: 1.4 nM
7.7 min	1.7 min	CCN(CC)S(=O)(=O)c1ccc(S(=O)(=O)N2CCC[C@@H](C(=O)N3CCN(c4nc(C(C)C)no4)CC3)C2)cc1	50 nM	> 10000 nM	inactive	30.7 nM	8.2 nM			Drug metabolism [15]: Metabolite_Detected; Drug metabolism [16]: Metabolite_Detected
		FC(F)(F)c1ccc(/C=C/c2nc(COc3ccc(CCCCn4ccnn4)cc3)co2)cc1 [MUBRITINIB]								IC50 [17]: 51 nM
		CN(C)C(=N)NC(=N)N [METFORMIN]								IC50 [18]: 800000 nM
27.1 min	18.5 min	CCN(CC)S(=O)(=O)c1ccc(S(=O)(=O)N2CCC[C@@H](C(=O)NC3COC3)C2)cc1	2300 nM	> 10000 nM	inactive	951 nM	1660 nM	900 nM	13800 nM	
		CCOC(=O)[C@@H]1CCCN(S(=O)(=O)c2ccc(S(=O)(=O)N(CC)CC)c(F)c2)C1	900 nM	> 10000 nM				200 nM	1600 nM	
		CCN(CC)S(=O)(=O)c1ccc(S(=O)(=O)N2CCC[C@@H](c3nc(C)no3)C2)cc1	4100 nM	> 10000 nM				700 nM	2900 nM	
0.7 min	0.64 min	CCOC(=O)[C@@H]1CCCN(S(=O)(=O)c2ccc(S(=O)(=O)N(CC)CC)cc2)C1	400 nM	> 10000 nM	inactive	118 nM	312 nM	90 nM	600 nM	solubility [19]: > 200 µM; IC50 [1]: 310 nM
		CCOC(=O)[C@@H]1CCCN(S(=O)(=O)c2ccc(S(=N)(=O)N(CC)CC)cc2)C1 (stereo partly specified)	2600 nM	> 10000 nM				900 nM	3600 nM	
		N=C(N)NC(=N)NCCc1ccccc1 [PHENFORMIN]								IC50 [20]: 3800 nM
		CCN(CC)C(=O)[C@@H]1CCCN(S(=O)(=O)c2ccc(S(=O)(=O)N(CC)CC)cc2)C1	6400 nM	> 10000 nM				700 nM	10500 nM	
